Laboratory results as given in patent US20260251642A1, “MOLECULAR TENSION SENSOR WITH NUCLEIC ACIDS AND HUH-TAGS” (REGENTS OF THE UNIVERSITY OF MINNESOTA, priority 2022, published 2026).
Several values for one entry are separate records, joined by “and”; a condition that tells them apart may be missing. Equal values may be shown once.

Columns and labels:
U251 cells = experiment: RAD-TGT rupture and delivery, flow cytometry readout, U251 cells; type: cell-based, human; conditions: versus DMSO
Method: (§1) RAD-TGT Synthesis: TGTs were designed using previously characterized DNA sequences with a 5′ extension to allow for HUH binding. The following oligonucleotides were purchased from Integrated DNA Technologies. To prepare TGTs, anchor and ligand strands were mixed in a 1.1:1 ratio and then annealed in a 1× annealing buffer by heating at 98° C. for five minutes followed by cooling at room temperature for 1 hour. Excess bottom strand was used to mitigate any single stranded fluorescent top strand which may be internalized resulting in false positives. RAD-TGTs were then generated by reacting HUH-ligand of interest with the annealed duplex in a 2:1 ratio. […]
(§2) RAD-TGT Experimental Setup: Cells of interest were trypsinized for five minutes and transferred to Opti-MEM Reduced Serum Media. Cells were then counted using an automated cell counter. […] Cells were removed from wells and analyzed with a BD ACCURI C6 Plus Personal Flow Cytometer without further washing.
(§3) Statistical Analysis: In general, each experiment was performed on at least three separate days with 1-3 separated wells per day. […] The fluorescence data were concatenated to produce the dot plots. The medians of the normalized data for each biological replicate were used to overlay on the dot plot, and statistical significance was calculated using unpaired ANOVA as previously described.

CHO-K1 cells = experiment: RAD-TGT rupture and delivery, flow cytometry readout, CHO-K1 cells; type: cell-based; conditions: versus DMSO
Method: as §1, §2, §3

U251 and CHO-K1 cells = experiment: Soluble RAD-TGT (echistatin) titration on U251 and CHO-K1 cells; type: cell-based
Method: FIG. 15. Soluble RAD-TGT titration highlights differences in integrin composition between cell lines. Soluble RAD-TGTs composed of the echistatin conjugated to fluorescently labeled ligand strand annealed to the non-anchor strand was added into the wells at varying concentrations ranging from […]. The total picomolar (pmol) range of oligo was from […]. Thus, the standard RAD-TGT experiment in the main text contained […] oligo assuming all oligo properly adhered, thus this is representative of experimental conditions. From this it was concluded that U251 cells internalize the soluble RAD-TGT at a greater rate than the CHO-K1 cells, […]

integrin receptors = conditions: cited from earlier work
integrins on U251 cells [1] = target: integrins on U251 cells
integrins on U251 cells [2] = experiment: cell-based or functional assay

Compound: Cc1ccc2c(c1)C(=O)[C@]1(O)CCN(c3ccc(N)cc3)C1=N2 [Para-amino-blebbistatin, reference compound]
- decrease in fluorescence upon treatment (U251 cells; U251 on WDV-Echi RAD-TGTs, 50 μM, 30 minutes pre-incubation): ~ 30%
- effect on median fluorescence, FN ligand (U251 cells; U251 on WDV-FN CY5-labeled RAD-TGTs): reduces median fluorescence
- decrease in fluorescence upon treatment (CHO-K1 cells; CHO-K1 on WDV-Echi RAD-TGTs, 50 μM, 30 minutes pre-incubation): ~ 30%
- effect on median fluorescence, FN ligand (CHO-K1 cells; CHO-K1 on WDV-FN CY5-labeled RAD-TGTs): reduces median fluorescence

Compound: Echistatin
- difference in bound echistatin between U251 and CHO-K1 cells (U251 and CHO-K1 cells): three-to-four-fold
- affinity for a broad range of integrin receptors (integrin receptors): sub-nanomolar

Compound: WDV-echistatin integrin ligand (echistatin recombinantly expressed as a fusion protein with the HUH- (from UniProt P17347 131-179)
- fold difference in bound echistatin, U251 against CHO-K1 cells (integrins on U251 cells [1]): 3 fold and 4 fold
- increase in median fluorescence, 12 pN RAD-TGT, U251 cells, flow cytometry (integrins on U251 cells [2]): 12 fold
- increase in median fluorescence, 54 pN RAD-TGT, U251 cells, flow cytometry (integrins on U251 cells [2]): 7 fold
